Data set [1] concerns the target T1, CYP3A4 (Homo sapiens, UniProt P08684).
T1 construct: CYP3A4 in human liver microsome; tissue Corning Gentest; host or cells: human liver microsomes
The experiment in a line: Inhibition of testosterone metabolite site of CYP3A4 in human liver microsome. Format: in vitro ADME. The method, then: The effect of the compound represented by formula (I) on the enzyme activity of testosterone metabolite site of CYP3A4 in human liver microsome was determined by the following experimental method:
100 mM PBS buffer was formulated, which was then used to formulate 2.5 mg/mL microsome solution and 5 mM NADPH solution. The 5× concentration of the compound working solution was diluted with PBS gradient (150, 50, 15, 5, 1.5, 0.15, 0.015, 0 μM). The 5× concentration of ketoconazole working solution was diluted with PBS gradient (150, 50, 15, 5, 1.5, 0.15, 0.015, 0 μM). […] working solution was diluted with PBS to a concentration of 50 μM.
(§1) 20 μL of the 2.5 mg/mL microsome solution, 20 μL of the 50 μM […] working solution, 20 μL of MgCl2 solution and 20 μL of the compound working solution (150, 50, 15, 5, 1.5, 0.15, 0.015, 0 μM, different reaction systems for each concentration) were taken respectively and mixed well. For the positive control group, the compound was replaced with the same concentration of ketoconazole. The mixture together with the 5 mM NADPH solution was pre-incubated at 37° C. for 5 minutes. […] 80 μL of the supernatant was taken and analyzed by LC-MS/MS.
The data was calculated by Graphpad Prism to obtain the IC50 value of the compound on the testosterone metabolite site of CYP3A4.
Background: Liver microsomes are vesicles of endoplasmic reticulum, rich in cytochrome P450 enzymes.

Data set [2] is described as follows: Solubility in PBS 7.4 and FaSSIF solutions. The class given is physicochemical. The following applies: thermodynamic from solid. From the text: The amorphous samples of the compound represented by formula (I) and the crystal form I samples of the dihydrochloride salt of the compound represented by formula (I) obtained in the present disclosure were further evaluated for solubility in PBS 7.4 and FaSSIF solutions.

The target of data set [3] is T2, CYP2D6 (Homo sapiens, UniProt P10635).
T2 construct: CYP2D6 in human liver microsome; tissue Corning Gentest; host or cells: human liver microsomes
T2 sequence (P10635 whole entry): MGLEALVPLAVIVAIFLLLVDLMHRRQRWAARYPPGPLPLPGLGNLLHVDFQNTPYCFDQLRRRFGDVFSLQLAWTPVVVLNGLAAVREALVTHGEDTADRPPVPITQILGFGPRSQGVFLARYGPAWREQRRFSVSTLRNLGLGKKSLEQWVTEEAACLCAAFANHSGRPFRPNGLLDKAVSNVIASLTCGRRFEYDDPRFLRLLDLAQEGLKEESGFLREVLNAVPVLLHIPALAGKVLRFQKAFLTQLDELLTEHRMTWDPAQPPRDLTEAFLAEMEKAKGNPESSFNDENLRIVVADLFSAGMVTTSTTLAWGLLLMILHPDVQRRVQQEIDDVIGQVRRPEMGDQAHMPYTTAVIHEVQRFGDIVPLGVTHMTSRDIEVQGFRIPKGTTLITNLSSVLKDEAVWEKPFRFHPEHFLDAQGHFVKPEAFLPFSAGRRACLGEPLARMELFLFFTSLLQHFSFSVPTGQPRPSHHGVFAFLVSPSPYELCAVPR
The experiment in a line: Inhibition of CYP2D6 in human liver microsome. The class given is in vitro ADME. The procedure:
The effect of the compound represented by formula (I) on the enzyme activity of CYP2D6 in human liver microsome was determined by the following experimental method:
100 mM PBS buffer was formulated, which was then used to formulate 2.5 mg/mL microsome solution and 5 mM NADPH solution. The 5× concentration of the compound working solution was diluted with PBS gradient (150, 50, 15, 5, 1.5, 0.15, 0.015, 0 μM). The 5× concentration of quinidine working solution was diluted with PBS gradient (150, 50, 15, 5, 1.5, 0.15, 0.015, 0 μM). Dextromethorphan working solution was diluted with PBS to a concentration of 50 μM.
as §1, with “quinidine.” for “ketoconazole.”, “minutes. After 5 minutes, 20 μL of NADPH was added to each well, the reaction was started and incubated for 30 minutes.” for “minutes.”
The data were calculated by Graphpad Prism to obtain the IC50 value of the compound on the metabolite site of CYP2D6.

Read-outs that look alike come from different tables or passages of the source. Some results are limits rather than exact numbers.

One molecule from patent publication US20210188856A1, “CRYSTAL FORM OF HYDROCHLORIDE OF PYRAZOLOHETEROARYL DERIVATIVE AND PREPARATION METHOD” (JIANGSU HENGRUI MEDICINE CO., LTD., priority 2018, published 2021) can be followed below.

A word on the IC50: it is the concentration that inhibits the measured activity by half. As a reminder, the solubility is how much of the substance goes into solution per volume.

T1 sequence (P08684 whole entry): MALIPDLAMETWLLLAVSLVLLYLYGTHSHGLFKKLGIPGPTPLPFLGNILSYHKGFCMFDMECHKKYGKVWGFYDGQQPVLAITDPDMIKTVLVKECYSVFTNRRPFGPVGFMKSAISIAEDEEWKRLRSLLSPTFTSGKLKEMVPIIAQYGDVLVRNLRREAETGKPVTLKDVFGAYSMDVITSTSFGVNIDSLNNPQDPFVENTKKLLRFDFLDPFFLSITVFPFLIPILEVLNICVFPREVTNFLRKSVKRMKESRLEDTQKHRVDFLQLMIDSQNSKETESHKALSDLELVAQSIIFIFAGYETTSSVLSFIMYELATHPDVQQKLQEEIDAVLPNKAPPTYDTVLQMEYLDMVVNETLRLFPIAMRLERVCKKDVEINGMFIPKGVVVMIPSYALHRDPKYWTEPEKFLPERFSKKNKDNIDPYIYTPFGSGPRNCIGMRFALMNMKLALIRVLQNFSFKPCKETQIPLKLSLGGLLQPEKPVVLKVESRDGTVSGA

Take `CCCCOc1nc(N)c2cnn(Cc3ccc(CN4CCCC4)cc3)c2n1` [compound represented by formula (I), 6-Butoxy-1-(4-(pyrrolidin-1-ylmethyl)benzyl)-1H-pyrazolo[3,4-d]pyrimidin-4-amine]: the “inhibitory effect on testosterone metabolite site of CYP3A4 (in words)” value in data set [1] was “weak inhibitory effect”. Moreover, the IC50 in data set [1] (testosterone probe) is 4 µM; in data set [3] (dextromethorphan probe), greater than 30 µM. In addition, the solubility in data set [2] (FaSSIF solution, fassif, read-out: FasSIF Solubility) was found to be 1.09 mg/mL; in data set [2] (PBS 7.4, pH 7.4, aqueous buffer, read-out: PBS 7.4 Solubility), 0.03 mg/mL. In data set [3], the “inhibitory effect against CYP2D6 (in words)” value is “no inhibitory effect”.
